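Each compound was tested at five concentrations against cells in 96-well plates for 48 hours. At the GI50, growth is halved.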 Calls of active or inactive are those of the source. Cut-off read from the data, not from the text of the source: active = GI50 up to about 1.1 µM and inactive = higher.
How the values were obtained:
Assay in all cases: NCI-60 cell line screen, 48 h
KM12 = tested on: KM12
MDA-MB-435 = tested on: MDA-MB-435
M14 = tested on: M14
SF-539 = tested on: SF-539
Hs-578T = tested on: Hs-578T
A549 = tested on: A549
HCC 2998 = tested on: HCC 2998
RPMI-8226 = tested on: RPMI-8226
BT-549 = tested on: BT-549
UACC-257 = tested on: UACC-257
OVCAR-5 = tested on: OVCAR-5
SK-MEL-2 = tested on: SK-MEL-2
SNB-75 = tested on: SNB-75
EKVX = tested on: EKVX
NCI-H226 = tested on: NCI-H226
UACC-62 = tested on: UACC-62
NCI-H522 = tested on: NCI-H522
A498 = tested on: A498
HL-60 = tested on: HL-60
RXF 393 = tested on: RXF 393
SF-268 = tested on: SF-268
UO-31 = tested on: UO-31
DU-145 = tested on: DU-145
CCRF-CEM = tested on: CCRF-CEM
OVCAR-4 = tested on: OVCAR-4
TK-10 = tested on: TK-10
SR = tested on: SR
CAKI-1 = tested on: CAKI-1
SK-MEL-28 = tested on: SK-MEL-28
T47D = tested on: T47D
LOX IMVI = tested on: LOX IMVI
SK-OV-3 = tested on: SK-OV-3
OVCAR-3 = tested on: OVCAR-3
786-0 = tested on: 786-0
HT-29 = tested on: HT-29
NCI-H460 = tested on: NCI-H460
IGROV-1 = tested on: IGROV-1
HCT-116 = tested on: HCT-116
HCT-15 = tested on: HCT-15
ACHN = tested on: ACHN
COLO 205 = tested on: COLO 205
Malme-3M = tested on: Malme-3M
MDA-MB-231 = tested on: MDA-MB-231
SN12C = tested on: SN12C
U-251 = tested on: U-251
SF-295 = tested on: SF-295
SW-620 = tested on: SW-620
NCI/ADR-RES = tested on: NCI/ADR-RES
MCF7 = tested on: MCF7
SNB-19 = tested on: SNB-19
SK-MEL-5 = tested on: SK-MEL-5
K562 = tested on: K562
HOP-62 = tested on: HOP-62
NCI-H23 = tested on: NCI-H23
MOLT-4 = tested on: MOLT-4
HOP-92 = tested on: HOP-92
OVCAR-8 = tested on: OVCAR-8
PC-3 = tested on: PC-3
MDA-N = tested on: MDA-N

CC(C)CC(Nc1c(O)ccc2ccccc12)C(=O)O (centres undefined)
GI50 (KM12): 30.6 µM (inactive) | GI50 (MDA-MB-435): 17.3 µM (inactive) | GI50 (M14): 37.8 µM (inactive) | GI50 (SF-539): 16.7 µM (inactive) | GI50 (Hs-578T): 21.6 µM (inactive) | GI50 (A549): > 100 µM (inactive) | GI50 (HCC 2998): 25.2 µM (inactive) | GI50 (RPMI-8226): 28.2 µM (inactive) | GI50 (BT-549): 19.5 µM (inactive) | GI50 (UACC-257): 20.5 µM (inactive) | GI50 (OVCAR-5): 80.7 µM (inactive) | GI50 (SK-MEL-2): 17.1 µM (inactive) | GI50 (SNB-75): 32.3 µM (inactive) | GI50 (EKVX): 17.3 µM (inactive) | GI50 (NCI-H226): 20 µM (inactive) | GI50 (UACC-62): 23.8 µM (inactive) | GI50 (NCI-H522): 26.3 µM (inactive) | GI50 (A498): 23.3 µM (inactive) | GI50 (HL-60): 34.2 µM (inactive) | GI50 (RXF 393): 12.9 µM (inactive) | GI50 (SF-268): 24.7 µM (inactive) | GI50 (UO-31): 27.6 µM (inactive) | GI50 (DU-145): 19.2 µM (inactive) | GI50 (CCRF-CEM): 0.959 µM (active) | GI50 (OVCAR-4): 51.4 µM (inactive) | GI50 (TK-10): 39.9 µM (inactive) | GI50 (SR): 28.1 µM (inactive) | GI50 (CAKI-1): 21.2 µM (inactive) | GI50 (SK-MEL-28): 45.9 µM (inactive) | GI50 (T47D): 64.7 µM (inactive) | GI50 (LOX IMVI): 31.7 µM (inactive) | GI50 (SK-OV-3): 27.2 µM (inactive) | GI50 (OVCAR-3): 20.7 µM (inactive) | GI50 (786-0): 59.3 µM (inactive) | GI50 (HT-29): 81.8 µM (inactive) | GI50 (NCI-H460): 35.2 µM (inactive) | GI50 (IGROV-1): 32.7 µM (inactive) | GI50 (HCT-116): 27.9 µM (inactive) | GI50 (HCT-15): 36.9 µM | GI50 (ACHN): 22.9 µM (inactive) | GI50 (COLO 205): > 100 µM (inactive) | GI50 (Malme-3M): 15.2 µM (inactive) | GI50 (MDA-MB-231): 25.4 µM (inactive) | GI50 (SN12C): 29.3 µM (inactive) | GI50 (U-251): 29.8 µM (inactive) | GI50 (SF-295): 20.5 µM (inactive) | GI50 (SW-620): 34.4 µM (inactive) | GI50 (NCI/ADR-RES): 37.8 µM (inactive) | GI50 (MCF7): 41.2 µM (inactive) | GI50 (SNB-19): 37.6 µM (inactive) | GI50 (SK-MEL-5): 18.3 µM (inactive) | GI50 (K562): 58.7 µM (inactive) | GI50 (HOP-62): 83.9 µM (inactive) | GI50 (NCI-H23): 19.5 µM (inactive) | GI50 (MOLT-4): 33 µM (inactive)

CC(=O)Oc1ccc2c(-c3ccccc3)c(Oc3ccc(Cl)cc3)c(=O)oc2c1
GI50 (KM12): 14.4 µM (inactive) | GI50 (M14): 19.8 µM (inactive) | GI50 (SF-539): 16.4 µM (inactive) | GI50 (HOP-92): 10.4 µM (inactive) | GI50 (Hs-578T): 20.1 µM (inactive) | GI50 (A549): 13.7 µM (inactive) | GI50 (OVCAR-8): 18.5 µM (inactive) | GI50 (HCC 2998): 7.55 µM (inactive) | GI50 (RPMI-8226): 47.1 µM (inactive) | GI50 (BT-549): 18.8 µM (inactive) | GI50 (UACC-257): 21.3 µM (inactive) | GI50 (OVCAR-5): 17.9 µM (inactive) | GI50 (SNB-75): 7.45 µM (inactive) | GI50 (EKVX): 15.6 µM (inactive) | GI50 (NCI-H226): 17.3 µM (inactive) | GI50 (NCI-H522): 2.82 µM (inactive) | GI50 (A498): 17 µM (inactive) | GI50 (HL-60): 42.3 µM (inactive) | GI50 (RXF 393): 18 µM (inactive) | GI50 (SF-268): 6.17 µM (inactive) | GI50 (UO-31): 14.8 µM (inactive) | GI50 (DU-145): 14.4 µM (inactive) | GI50 (CCRF-CEM): 15.4 µM (inactive) | GI50 (OVCAR-4): 15.2 µM (inactive) | GI50 (TK-10): 13.5 µM (inactive) | GI50 (SR): 28.8 µM (inactive) | GI50 (CAKI-1): 18.3 µM (inactive) | GI50 (SK-MEL-28): 17.7 µM (inactive) | GI50 (T47D): 6.21 µM (inactive) | GI50 (LOX IMVI): 20.6 µM (inactive) | GI50 (OVCAR-3): 14.5 µM (inactive) | GI50 (786-0): 16.4 µM (inactive) | GI50 (HT-29): 20.8 µM (inactive) | GI50 (NCI-H460): 14.7 µM (inactive) | GI50 (IGROV-1): 15.9 µM (inactive) | GI50 (HCT-116): 14.9 µM (inactive) | GI50 (HCT-15): 3.16 µM | GI50 (ACHN): 16.9 µM (inactive) | GI50 (PC-3): 23.1 µM (inactive) | GI50 (Malme-3M): 15.6 µM (inactive) | GI50 (MDA-MB-231): 18.7 µM (inactive) | GI50 (SN12C): 24.1 µM (inactive) | GI50 (U-251): 4.19 µM (inactive) | GI50 (SF-295): 17.9 µM (inactive) | GI50 (SW-620): 20.3 µM (inactive) | GI50 (MCF7): 20.7 µM (inactive) | GI50 (SNB-19): 14.4 µM (inactive) | GI50 (SK-MEL-5): 18 µM (inactive) | GI50 (K562): 14.8 µM (inactive) | GI50 (HOP-62): 18.3 µM (inactive) | GI50 (NCI-H23): 18.7 µM (inactive) | GI50 (MOLT-4): 18.1 µM (inactive)

CC12CC(c3ccccc3O1)C(C(=O)Nc1cccc(F)c1)C(=O)N2 (centres undefined)
GI50 (KM12): 49.7 µM (inactive) | GI50 (MDA-MB-435): 38.8 µM (inactive) | GI50 (M14): 90.4 µM (inactive) | GI50 (SF-539): > 100 µM (inactive) | GI50 (Hs-578T): > 100 µM (inactive) | GI50 (A549): 52.1 µM (inactive) | GI50 (OVCAR-8): 24.4 µM (inactive) | GI50 (HCC 2998): > 100 µM (inactive) | GI50 (RPMI-8226): 40.7 µM (inactive) | GI50 (BT-549): 23.5 µM (inactive) | GI50 (UACC-257): 40.2 µM (inactive) | GI50 (OVCAR-5): > 100 µM (inactive) | GI50 (SK-MEL-2): > 100 µM (inactive) | GI50 (EKVX): 31.6 µM (inactive) | GI50 (MDA-N): 54 µM (inactive) | GI50 (UACC-62): 52.6 µM (inactive) | GI50 (NCI-H522): > 100 µM (inactive) | GI50 (A498): > 100 µM (inactive) | GI50 (HL-60): 30.5 µM (inactive) | GI50 (SF-268): > 100 µM (inactive) | GI50 (UO-31): 7.78 µM (inactive) | GI50 (DU-145): > 100 µM (inactive) | GI50 (CCRF-CEM): 26.3 µM (inactive) | GI50 (OVCAR-4): 30.1 µM (inactive) | GI50 (SR): 38.7 µM (inactive) | GI50 (CAKI-1): 92.3 µM (inactive) | GI50 (SK-MEL-28): 78.2 µM (inactive) | GI50 (T47D): 25.2 µM (inactive) | GI50 (LOX IMVI): 49 µM (inactive) | GI50 (SK-OV-3): > 100 µM (inactive) | GI50 (OVCAR-3): 92 µM (inactive) | GI50 (786-0): > 100 µM (inactive) | GI50 (HT-29): 55.8 µM (inactive) | GI50 (NCI-H460): 47.2 µM (inactive) | GI50 (IGROV-1): 40.7 µM (inactive) | GI50 (HCT-116): 91.2 µM (inactive) | GI50 (HCT-15): 42.9 µM | GI50 (ACHN): > 100 µM (inactive) | GI50 (COLO 205): 62.7 µM (inactive) | GI50 (PC-3): 49.1 µM (inactive) | GI50 (Malme-3M): > 100 µM (inactive) | GI50 (U-251): > 100 µM (inactive) | GI50 (SF-295): 64 µM (inactive) | GI50 (SW-620): 84.9 µM (inactive) | GI50 (NCI/ADR-RES): 26.6 µM (inactive) | GI50 (MCF7): 44.7 µM (inactive) | GI50 (SNB-19): > 100 µM (inactive) | GI50 (SK-MEL-5): 22.8 µM (inactive) | GI50 (K562): 35.4 µM (inactive) | GI50 (HOP-62): > 100 µM (inactive) | GI50 (NCI-H23): 17.3 µM (inactive) | GI50 (MOLT-4): 18.8 µM (inactive)

— ChEMBL document CHEMBL1201862, “PubChem BioAssay data set” (2004)
